Test results reported in BindingDB's records for doi:10.1016/j.bmcl.2010.09.092 (University of New Mexico School of Medicine, 2010).

Experiment: Inhibition of human alphaVbeta3 receptor expressed in african green monkey Vero E6 cells assessed as inhibition of SNV infection in cells by immunofluorescent assay

Row | SMILES | EC50
1 | O=C(NCc1cccs1)C(Cc1ccccc1)NS(=O)(=O)c1ccc2nsnc2c1 (racemic) [rac-2-(benzo[c][1,2,5]thiadiazole-5-sulfonamido)-3-phenyl-N-(thiophen-2-ylmethyl)propanamide] | 2.5 nM
2 | O=C(NCc1ccc2c(c1)OCO2)C(Cc1ccccc1)NS(=O)(=O)c1cccc2cccnc12 (racemic) [rac-N-(benzo[d][1,3]dioxol-5-ylmethyl)-3-phenyl-2-(quinoline-8-sulfonamido)propanamide] | 1.6 nM
3 | O=c1c(C=NCc2ccco2)c(CSc2ccc(Cl)cc2)[nH]n1-c1nc2ccccc2s1 [2-(benzo[d]thiazol-2-yl)-5-((4-chlorophenylthio)methyl)-4-((furan-2-ylmethylimino)methyl)-1H-pyrazol-3(2H)-one] | 1.3 nM
